{
  "source": "patent US9629875B2",
  "about": "“Clostridium difficile sporicidal compositions” (Microdermis Corporation, priority 2014, dated 2017)",
  "origin": "cited, not measured here",
  "test_system": "Bacillus subtilis",
  "conditions": "0.1% L-alanine in the absence of sporicidal agents, after 4 hours",
  "data": [
    {"molecule": "C[C@H](N)C(=O)O", "note": "[L-alanine]", "values": [
      {"measurement": "colony-forming unit (CFU) relative count", "value": 116, "unit": "%"}
    ]}
  ]
}
